Measurements published in PubChem BioAssay (NCI).
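Growth conditions: 96-well plates. Treatment: test compound, 48 hours, 5 concentrations. Analysis: linear interpolation between bracketing concentrations; unreached endpoints set to highest concentration. GI50 is the concentration that inhibits growth by half. TGI marks complete inhibition of growth.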

Legend:
Assay in all cases: DTP human tumour cell line panel, 48 h
786-0 renal = system: 786-0 renal
A498 renal = system: A498 renal
ACHN renal = system: ACHN renal
CAKI-1 renal = system: CAKI-1 renal
HCC-2998 colon = system: HCC-2998 colon
HOP-62 NSCLC = system: HOP-62 NSCLC
HS 578T breast = system: HS 578T breast
KM12 colon = system: KM12 colon
NCI-H522 lung = system: NCI-H522 lung
OVCAR-3 ovarian = system: OVCAR-3 ovarian
SF-268 CNS = system: SF-268 CNS
SF-539 CNS = system: SF-539 CNS
SN12C renal = system: SN12C renal
T-47D breast = system: T-47D breast
U251 CNS = system: U251 CNS
UACC-257 melanoma = system: UACC-257 melanoma
UO-31 renal = system: UO-31 renal

| Structure (SMILES) | TGI (786-0 renal) | TGI (A498 renal) | TGI (ACHN renal) | TGI (CAKI-1 renal) | TGI (HCC-2998 colon) | TGI (HOP-62 NSCLC) | TGI (HS 578T breast) | TGI (KM12 colon) | TGI (NCI-H522 lung) | TGI (OVCAR-3 ovarian) | TGI (SF-268 CNS) | TGI (SF-539 CNS) | TGI (SN12C renal) | TGI (T-47D breast) | TGI (U251 CNS) | TGI (UACC-257 melanoma) | TGI (UO-31 renal) | GI50 (UACC-257 melanoma) |
| --- | --- | --- | --- | --- | --- | --- | --- | --- | --- | --- | --- | --- | --- | --- | --- | --- | --- | --- |
| NC(=Nc1ccc(O)cc1)S(=O)O | > 100 µM | > 100 µM | > 100 µM | > 100 µM | > 100 µM | > 100 µM | > 100 µM | > 100 µM | > 100 µM | > 100 µM | > 100 µM | > 100 µM | > 100 µM | > 100 µM | > 100 µM | > 100 µM | > 100 µM |  |
| C=CCNC1=C2C[C@@H](C)C[C@@H](OC)[C@H](OC(=O)CN)[C@H](C)/C=C(\C)[C@@H](OC(N)=O)[C@H](OC)/C=C\C=C(/C)C(=O)NC(=CC1=O)C2=O | 20.7 µM | 28.4 µM | 19.6 µM | 18.1 µM | 1.29 µM | 19.9 µM | 80.1 µM | 9.87 µM | 18.8 µM | 7.41 µM | 29.7 µM | 15.9 µM | 17.1 µM | > 25.5 µM | 29.1 µM | 15.7 µM | 19.7 µM |  |
| CC1OC(OC2C(O)COC(OC3C(C)OC(OC4C(OC(=O)[C@]56CCC(C)(C)C[C@@H]5C5=CCC7[C@@]8(C)C[C@H](O)[C@H](OC9OC(CO)C(O)C(OC%10OC(CO)C(O)C(O)C%10O)C9O)[C@@](C)(CO)[C@@H]8CC[C@@]7(C)[C@]5(C)CC6)OCC(O)C4O)C(O)C3O)C2O)C(O)C(O)C1O (stereo partly specified) | 30 µM | 26 µM | 34.5 µM | 19.1 µM | 32.9 µM | 28.8 µM | 40.9 µM | 55.2 µM | 31.4 µM | 29.4 µM | 39.7 µM | 34.4 µM | 25.2 µM | 35.5 µM | 32.8 µM | 35.6 µM | 16 µM |  |
| COc1cc2cc(C(=O)N3CC(CCl)c4ccccc43)[nH]c2c(OC)c1OC (stereo unspecified) | > 100 µM | > 100 µM | > 100 µM | > 100 µM | > 100 µM | > 92.1 µM | > 100 µM | > 100 µM | > 100 µM | > 100 µM | > 100 µM | > 100 µM | 55.2 µM | > 89.4 µM | > 100 µM | > 100 µM | > 100 µM |  |
| COc1ccc(/C=C2\N=C(NN)N=C2Cl)cc1 | > 100 µM | > 100 µM | > 100 µM | > 100 µM | > 100 µM | > 100 µM | > 100 µM | > 100 µM | > 100 µM | > 100 µM | > 100 µM | > 100 µM | > 100 µM | > 100 µM | > 100 µM | > 100 µM | > 100 µM |  |
| COc1cc2c(cc1OC)C(N)CC2=O (stereo unspecified) | > 100 µM | > 100 µM | > 100 µM | > 100 µM | > 100 µM | > 100 µM | > 100 µM | > 100 µM | > 100 µM | > 100 µM | > 100 µM | > 100 µM | > 100 µM | > 100 µM | > 100 µM | > 100 µM | > 100 µM |  |
| C=CC(C)CCC(C/C=C(\C)CCC=C(C)C)C(=C)CCCC(C)C (stereo unspecified) | > 100 µM | > 100 µM | > 100 µM | > 100 µM | > 100 µM | > 100 µM | > 100 µM | > 100 µM | > 100 µM | > 100 µM | > 100 µM | > 100 µM | > 100 µM | > 100 µM | > 100 µM | > 100 µM | > 100 µM |  |
| S=c1sc2nc(Cl)nc(Cl)c2s1 | 12.9 µM | 32 µM | 26.9 µM | 17.8 µM | 31.6 µM | 36.9 µM | 60.4 µM | 20.8 µM | 25.2 µM | 25.2 µM | 34.4 µM | 41.6 µM | 32.4 µM | 31.9 µM | 21.3 µM | 31.9 µM | 25.1 µM |  |
| CC(=O)OC1CC[C@]2(C)C3CC[C@@]4(C)C(CCC4[C@H](C)CCCC(C)C)[C@@H]3CCC2(Br)C1 (stereo partly specified) | 17.5 µM | 18 µM | 20.2 µM | 25 µM | > 50 µM | > 50 µM | 30.4 µM | > 50 µM | 29.1 µM | 42.5 µM | 28.1 µM | 18.5 µM | > 50 µM | > 50 µM | > 50 µM | > 50 µM | 24.6 µM |  |
| O=C(c1ccccc1)c1sc2c(=O)c(C(=O)c3ccccc3)c(C(=O)c3ccccc3)sc2c(=O)c1C(=O)c1ccccc1 | > 100 µM | > 100 µM | > 100 µM | 34.5 µM | 44 µM | > 100 µM | > 100 µM | > 100 µM | 38.6 µM | > 100 µM | > 100 µM | 51.1 µM | > 100 µM | > 100 µM | > 100 µM | > 100 µM | 22.6 µM |  |
| Cc1ccc(/C=C/C(=O)c2cc(CN(C)C)c(O)c(CN(C)C)c2)cc1 | 73.9 µM | 95.5 µM | 90.8 µM | 50.3 µM | 46.2 µM | 37.5 µM | 86.7 µM | 25.2 µM | 31.7 µM | 69.5 µM | > 100 µM | 34.9 µM | 44 µM | > 100 µM | 58 µM | 27.4 µM | 60 µM |  |
| C/C=C/C(=O)N1C(=O)OC[C@@H]1c1ccccc1 | 35 µM | 45.7 µM | 33.5 µM | 32.6 µM | 41.3 µM | 41.1 µM | 76.2 µM | 29.3 µM | 39.1 µM | 33.7 µM | 44.1 µM | 38.5 µM | 37.2 µM | 36.8 µM | 48.5 µM | 39.9 µM | 35.2 µM |  |
| NC(=O)c1[nH]cnc1/N=N/SCC(N)C(=O)O (stereo unspecified) | > 100 µM | > 100 µM | > 100 µM | > 100 µM | > 30.6 µM | > 100 µM | > 100 µM | > 62.5 µM | > 100 µM | > 100 µM | > 100 µM | > 100 µM | > 58 µM | > 100 µM | > 100 µM | > 100 µM | > 93.9 µM |  |
| C=C1C(=O)O[C@H]2[C@H]1CC(=O)/C(C)=C/CC[C@@]1(C)O[C@@H]21 | 1.53 µM | 3.6 µM | 1.44 µM | 1.28 µM | 6.02 µM | 22 µM | 8.62 µM | 7.09 µM | 0.729 µM | 0.6 µM | 13.4 µM | 4.6 µM | 3.93 µM | 2.93 µM | 13.6 µM | 5.57 µM | 2.29 µM | 2 µM |
| COc1cc2c(cc1OCc1ccccc1)NC(=S)[C@@H]1CCCN1C2=S | > 100 µM | > 100 µM | > 100 µM | > 100 µM | > 100 µM | 66.2 µM | > 100 µM | > 100 µM | > 100 µM | > 100 µM | > 100 µM | > 100 µM | > 100 µM | > 100 µM | > 100 µM | > 100 µM | > 100 µM |  |
| COc1ccc(C(=O)/C=C/c2ccc(OCC(=O)N3CCN(c4ccccc4)CC3)cc2)cc1 | > 77.3 µM | > 93.9 µM | > 100 µM | > 100 µM | > 100 µM | > 79.6 µM | > 76.5 µM | > 100 µM | > 45.8 µM | > 100 µM | > 100 µM | 51.7 µM | > 100 µM | > 100 µM | > 83.5 µM | > 100 µM | > 94.7 µM |  |
| O=C(/C=C/c1ccc(O)c(O)c1O)OCCc1ccccc1 | 35.5 µM | > 100 µM | > 100 µM | > 100 µM | > 100 µM | 55.5 µM | > 100 µM | 46.4 µM | 54.9 µM | 46.5 µM | > 100 µM | 70.7 µM | 34.4 µM | > 100 µM | 80.6 µM | > 100 µM | 78.1 µM |  |
| O=[N+]([O-])/C(C(Cl)=C(Cl)Cl)=C(/Sc1ccccc1)N1CCCCC1 | > 100 µM | > 100 µM | > 100 µM | > 100 µM | > 100 µM | > 100 µM | > 100 µM | > 100 µM | > 100 µM | > 100 µM | > 100 µM | > 100 µM | > 100 µM | > 100 µM | > 100 µM | 99.1 µM | > 100 µM |  |
| O=C(NC(Nc1ccc(F)c(Cl)c1)(C(F)(F)F)C(F)(F)F)OCc1ccccc1 | 39.5 µM | > 100 µM | > 100 µM | > 100 µM | 64.8 µM | > 100 µM | > 100 µM | > 100 µM | 42.1 µM | 34.8 µM | > 100 µM | 42.6 µM | > 100 µM | > 100 µM | > 100 µM | > 100 µM | 54.1 µM |  |
| COc1cc2c(cc1O)[C@@H]1Cc3c(cc(OC)c(OC)c3Oc3cc4c(cc3OC)CCN(C)[C@@H]4Cc3ccc(O)cc3)[C@H](C2)N1C | > 100 µM | 80.4 µM | > 100 µM | > 100 µM | > 72 µM | > 100 µM | > 100 µM | > 100 µM | 67 µM | > 100 µM | > 100 µM | 65.2 µM | > 100 µM | > 100 µM | > 100 µM | 44.6 µM | > 100 µM |  |
